{
  "source": "ChEMBL document CHEMBL5154859",
  "about": "“Targeting the Aryl Hydrocarbon Receptor with Microbial Metabolite Mimics Alleviates Experimental Colitis in Mice” (J Med Chem, 2022)",
  "key": {"[1]": {"target": "T1, AhR (aryl hydrocarbon receptor) (Homo sapiens, UniProt P35869)", "T1 sequence (P35869 whole entry)": "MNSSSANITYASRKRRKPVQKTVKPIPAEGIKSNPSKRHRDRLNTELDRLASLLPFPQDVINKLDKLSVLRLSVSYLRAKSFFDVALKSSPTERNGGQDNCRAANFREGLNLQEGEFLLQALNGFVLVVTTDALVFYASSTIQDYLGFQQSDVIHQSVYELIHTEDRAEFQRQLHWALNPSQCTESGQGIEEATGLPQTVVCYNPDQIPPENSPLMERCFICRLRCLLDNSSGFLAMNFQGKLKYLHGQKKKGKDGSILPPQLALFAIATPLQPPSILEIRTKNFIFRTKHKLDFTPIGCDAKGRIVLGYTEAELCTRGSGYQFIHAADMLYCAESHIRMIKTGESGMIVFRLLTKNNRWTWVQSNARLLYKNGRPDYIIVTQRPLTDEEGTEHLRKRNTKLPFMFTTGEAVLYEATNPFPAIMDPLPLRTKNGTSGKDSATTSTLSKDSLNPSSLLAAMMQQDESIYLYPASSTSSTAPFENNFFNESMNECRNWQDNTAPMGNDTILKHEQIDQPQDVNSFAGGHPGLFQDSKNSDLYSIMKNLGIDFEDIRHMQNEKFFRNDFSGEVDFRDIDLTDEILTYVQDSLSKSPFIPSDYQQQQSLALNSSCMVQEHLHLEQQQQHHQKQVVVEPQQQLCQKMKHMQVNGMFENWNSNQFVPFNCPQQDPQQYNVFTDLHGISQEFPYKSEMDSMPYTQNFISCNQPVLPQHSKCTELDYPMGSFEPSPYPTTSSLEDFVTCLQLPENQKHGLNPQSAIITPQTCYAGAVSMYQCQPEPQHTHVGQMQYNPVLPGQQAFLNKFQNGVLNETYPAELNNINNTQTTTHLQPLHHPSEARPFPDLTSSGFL", "assay": "Agonist activity at AhR (unknown origin) transfected in human AZ-AHR reporter cells derived from human HepG2 cells assessed as relative efficacy incubated for 4 hrs by luciferase reporter gene assay relative to control", "format": "cell-based", "settings": "read-out: Efficacy; call rule not given here"}, "[2]": {"target": "T2, Aryl hydrocarbon receptor (Mus musculus, UniProt P30561)", "T2 sequence (P30561 whole entry)": "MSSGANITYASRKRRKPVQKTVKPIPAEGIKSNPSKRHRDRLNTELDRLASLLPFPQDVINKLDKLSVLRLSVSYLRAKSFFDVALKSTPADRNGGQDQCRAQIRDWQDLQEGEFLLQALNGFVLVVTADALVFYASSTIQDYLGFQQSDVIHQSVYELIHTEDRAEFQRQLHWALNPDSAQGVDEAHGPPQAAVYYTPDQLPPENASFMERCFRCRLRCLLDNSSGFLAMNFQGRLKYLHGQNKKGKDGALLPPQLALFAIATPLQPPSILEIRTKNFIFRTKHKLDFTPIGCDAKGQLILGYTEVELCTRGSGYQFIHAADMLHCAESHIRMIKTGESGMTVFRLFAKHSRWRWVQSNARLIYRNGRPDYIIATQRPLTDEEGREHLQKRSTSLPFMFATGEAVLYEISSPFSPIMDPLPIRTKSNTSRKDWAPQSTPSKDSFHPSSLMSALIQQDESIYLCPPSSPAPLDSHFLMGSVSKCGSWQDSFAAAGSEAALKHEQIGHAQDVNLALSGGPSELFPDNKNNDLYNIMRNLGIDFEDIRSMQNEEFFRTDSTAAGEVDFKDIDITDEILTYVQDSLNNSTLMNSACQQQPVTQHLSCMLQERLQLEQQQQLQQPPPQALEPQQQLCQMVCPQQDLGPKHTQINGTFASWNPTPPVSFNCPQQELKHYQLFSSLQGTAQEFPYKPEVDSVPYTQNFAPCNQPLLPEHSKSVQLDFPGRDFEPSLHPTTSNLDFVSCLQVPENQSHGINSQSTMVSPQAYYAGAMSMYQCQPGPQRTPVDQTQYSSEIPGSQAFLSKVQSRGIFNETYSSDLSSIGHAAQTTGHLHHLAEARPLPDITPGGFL", "assay": "Displacement of [3H]TCDD from mouse AhR expressed in mouse Hepa1c1c7 cells cytosol incubated for 2 hrs by competitive radioligand binding assay", "format": "subcellular"}, "[3]": {"target": "T3, Aryl hydrocarbon receptor (Homo sapiens, UniProt P35869)", "T3 sequence (P35869 whole entry)": "T1 sequence (P35869 whole entry)", "assay": "Agonist activity at AhR in human AZ-AHR reporter cell derived from human HepG2 cells assessed as increase in luciferase activity at 1 uM measured after 8 to 24 hrs", "format": "cell-based", "settings": "TDE = time-dependent effect, time 8-24 hrs"}, "[4]": {"assay": "Metabolic stability in mouse plasma assessed as half life by LC/MS analysis", "format": "ADME, cell-free"}, "[5]": {"target": "T2, Aryl hydrocarbon receptor", "assay": "Agonist activity at AhR in mouse Hepa2Dluc cells", "format": "cell-based"}, "[6]": {"target": "T3, Aryl hydrocarbon receptor", "assay": "Agonist activity at AhR (unknown origin) transfected in human AZ-AHR reporter cells derived from human HepG2 cells incubated for 4 hrs by luciferase reporter gene assay", "format": "cell-based", "settings": "for Activity: human, az-ahr, 4 h, DDE = dose-dependent effect"}, "[7]": {"target": "T3, Aryl hydrocarbon receptor", "assay": "Agonist activity at AhR in human LS180 cells assessed as induction of nuclear translocation at 1 uM incubated for 90 mins by DAPI staining based confocal fluorescence microscopic analysis", "format": "cell-based", "settings": "ls180, 1.5 h"}, "[8]": {"target": "T3, Aryl hydrocarbon receptor", "assay": "Agonist activity at AhR in human LS180 cell lysates assessed as induction of AhR-ARNT heterodimerization at 1 uM incubated for 90 mins by co-immunoprecipitation assay", "format": "subcellular", "settings": "ls180, 1.5 h"}, "[9]": {"target": "T3, Aryl hydrocarbon receptor", "assay": "Agonist activity at AhR in human LS180 cells assessed as binding of AhR to CYP1A1 promoter gene at 1 uM incubated for 90 mins by chromatin immunoprecipitation assay", "format": "cell-based", "settings": "ls180, 1.5 h"}, "[10]": {"target": "T4, Nuclear receptor subfamily 1 group I member 2 (Homo sapiens, UniProt O75469)", "T4 sequence (O75469 whole entry)": "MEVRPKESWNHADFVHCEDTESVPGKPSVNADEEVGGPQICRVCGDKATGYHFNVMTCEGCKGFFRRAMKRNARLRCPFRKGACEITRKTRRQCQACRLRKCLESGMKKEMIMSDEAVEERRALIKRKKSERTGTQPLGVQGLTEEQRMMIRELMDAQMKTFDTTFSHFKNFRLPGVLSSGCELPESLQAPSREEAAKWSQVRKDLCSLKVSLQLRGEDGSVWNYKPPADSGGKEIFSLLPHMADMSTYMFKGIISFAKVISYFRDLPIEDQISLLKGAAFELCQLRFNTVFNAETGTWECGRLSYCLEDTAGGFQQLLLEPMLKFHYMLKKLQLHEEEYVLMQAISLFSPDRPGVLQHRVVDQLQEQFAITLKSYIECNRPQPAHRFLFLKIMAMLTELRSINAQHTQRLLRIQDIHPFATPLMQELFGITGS", "assay": "Displacement of fluorescence labeled ligand from human PXR ligand binding domain by Lanthascreen TR-FRET assay"}, "[11]": {"target": "T4, Nuclear receptor subfamily 1 group I member 2", "assay": "Agonist activity at human PXR transfected in human LS180 cells cotransfected with luciferase reporter plasmid p2A4-Luc assessed as transcriptional activity incubated for 24 hrs by luciferase reporter assay", "format": "cell-based"}, "[12]": {"assay": "Stability in cell-free culture media assessed as parent compound remaining at 1 uM incubated for 12 hrs in presence of serum by LC/MS analysis", "format": "physicochemical", "settings": "cell-free culture media with serum, read-out: Stability"}},
  "data": [
    {"smiles": "COC(=O)c1csc(C(=O)c2c[nH]c3ccccc23)n1", "values": [
      {"measurement": "Emax at 4 h", "setting": "[1]", "value": 131, "unit": "%"},
      {"measurement": "Ki", "setting": "[2]", "value": 0.01, "unit": "µM"},
      {"measurement": "Activity", "setting": "[3]", "value": "Tde"},
      {"measurement": "half-life", "setting": "[4]", "value": 44, "unit": "min"},
      {"measurement": "EC50", "setting": "[5]", "value": 0.01, "unit": "µM"}
    ]},
    {"smiles": "C=CCn1cc(C(=O)c2nccs2)c2ccccc21", "values": [
      {"measurement": "Activity", "setting": "[6]", "value": "Dde"},
      {"measurement": "Emax at 4 h", "setting": "[1]", "value": 63.9, "unit": "%"}
    ]},
    {"smiles": "COc1cc(Cn2cc(C(=O)c3nccs3)c3ccccc32)cc(OC)c1", "values": [
      {"measurement": "Activity", "setting": "[6]", "value": "Dde"},
      {"measurement": "Emax at 4 h", "setting": "[1]", "value": 57, "unit": "%"}
    ]},
    {"smiles": "COc1ccc(Cn2cc(C(=O)c3nccs3)c3ccccc32)cc1", "values": [
      {"measurement": "EC50", "setting": "[6]", "value": 0.11, "unit": "µM"},
      {"measurement": "Emax at 4 h", "setting": "[1]", "value": 133, "unit": "%"},
      {"measurement": "Ki", "setting": "[2]", "value": 0.8, "unit": "µM"},
      {"measurement": "Activity", "setting": "[7]", "value": "Active"},
      {"measurement": "Activity", "setting": "[8]", "value": "Active"},
      {"measurement": "Activity", "setting": "[9]", "value": "Active"},
      {"measurement": "Activity", "setting": "[3]", "value": "Tde"}
    ]},
    {"smiles": "O=C(c1nccs1)c1cn(C(=O)c2ccccc2)c2ccccc12", "values": [
      {"measurement": "Activity", "setting": "[6]", "value": "Dde"},
      {"measurement": "Emax at 4 h", "setting": "[1]", "value": 81.4, "unit": "%"}
    ]},
    {"smiles": "Cn1cc(C(=O)c2nccs2)c2ccccc21", "values": [
      {"measurement": "Activity", "setting": "[6]", "value": "Dde"},
      {"measurement": "Emax at 4 h", "setting": "[1]", "value": 62.9, "unit": "%"}
    ]},
    {"smiles": "CC(=O)n1cc(C(=O)c2nccs2)c2ccccc21", "values": [
      {"measurement": "Activity", "setting": "[6]", "value": "Dde"},
      {"measurement": "Emax at 4 h", "setting": "[1]", "value": 106, "unit": "%"}
    ]},
    {"smiles": "CNC(=O)c1csc(C(=O)c2c[nH]c3ccccc23)n1", "values": [
      {"measurement": "IC50", "setting": "[10]", "value": 32.1, "unit": "µM"},
      {"measurement": "EC50", "setting": "[11]", "value": 12, "unit": "µM"},
      {"measurement": "remaining at 12 h, 1 µM", "setting": "[12]", "value": 5, "unit": "%"}
    ]}
  ]
}
